Measurements published in PubChem BioAssay AID192 (DTP/NCI, 2004).
Several values for one entry are separate records, joined by “and”; a condition that tells them apart may be missing. Equal entries are not always repeated. Toxic doses and inconclusive results are not listed. Rule for the calls: active = survival T/C of 150% or more; inactive = T/C below 125% in these data.

Tested on: BDF1 mice, B16 melanoma ip, median survival T/C
Experiment: NCI In Vivo Anticancer Drug Screen. Data for tumor model B16 Melanoma (intraperitoneal) in B6D2F1 (BDF1) mice
Settings: endpoint: median survival time, higher = longer survival
Summary of the method: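 Values are ratios of treated (T) to vehicle-control (C) measurements of survival or tumor size in tumor-bearing mice.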

[1] = dose: 25.0 mg/kg/injection, schedule: Q01DX009 (ip), vehicle: saline with Tween-80
[2] = dose: 50.0 mg/kg/injection, schedule: Q01DX009 (ip), vehicle: saline with Tween-80
[3] = dose: 100.0 mg/kg/injection, schedule: Q01DX009 (ip), vehicle: saline with Tween-80
[4] = dose: 200.0 mg/kg/injection, schedule: Q01DX009 (ip), vehicle: saline with Tween-80
[5] = dose: 100.0 mg/kg/injection, schedule: Q01DX009 (ip), vehicle: Klucel (hydroxypropylcellulose) (HPC)
[6] = dose: 200.0 mg/kg/injection, schedule: Q01DX009 (ip), vehicle: Klucel (hydroxypropylcellulose) (HPC)
[7] = dose: 400.0 mg/kg/injection, schedule: Q01DX009 (ip), vehicle: Klucel (hydroxypropylcellulose) (HPC)
[8] = dose: 12.5 mg/kg/injection, schedule: Q01DX009 (ip), vehicle: saline with Tween-80
[9] = dose: 50.0 mg/kg/injection, schedule: Q04DX003 (ip), vehicle: saline with Tween-80
[10] = dose: 100.0 mg/kg/injection, schedule: Q04DX003 (ip), vehicle: saline with Tween-80
[11] = dose: 200.0 mg/kg/injection, schedule: Q04DX003 (ip), vehicle: saline with Tween-80
[12] = dose: 400.0 mg/kg/injection, schedule: Q01DX009 (ip), vehicle: saline with Tween-80
[13] = dose: 50.0 mg/kg/injection, schedule: Q01DX009 (ip), vehicle: Klucel (hydroxypropylcellulose) (HPC)
[14] = dose: 12.5 mg/kg/injection, schedule: Q01DX009 (ip), vehicle: Klucel (hydroxypropylcellulose) (HPC)
[15] = dose: 25.0 mg/kg/injection, schedule: Q01DX009 (ip), vehicle: Klucel (hydroxypropylcellulose) (HPC)

Measured: T/C

CCCCCCCCCCCCCCCCCCOCC(CO)OC (stereo not drawn)
inactive: [1] 102 % of control | [2] 100 % of control | [3] 98 % of control | [4] 92 % of control

CCN(C(=O)Nc1ccc(OC)cc1)c1ccccc1
inactive: [5] 97 % of control | [6] 100 % of control | [7] 88 % of control

CC(NC1=NCCO1)c1cccc2ccccc12 (stereo not drawn)
inactive: dose: 8.0 mg/kg/injection, schedule: Q04DX003 (ip), vehicle: saline with Tween-80 102 % of control | dose: 12.0 mg/kg/injection, schedule: Q04DX003 (ip), vehicle: saline with Tween-80 115 % of control | [8] 102 % of control | dose: 18.0 mg/kg/injection, schedule: Q04DX003 (ip), vehicle: saline with Tween-80 102 % of control | [1] 106 % of control | [2] 93 % of control | [9] 123 % of control

Cc1cc(C)c(CN)cc1CN
inactive: [1] 108 % of control | [2] 112 % of control

COC(=O)[C@H]1[C@H]2C[C@@H]3c4[nH]c5cc(OC)ccc5c4CCN3C[C@H]2C[C@@H](OC(=O)/C=C/c2cc(OC)c(OC)c(OC)c2)[C@@H]1OC
inactive: dose: 0.09 mg/kg/injection, schedule: Q01DX009 (ip), vehicle: Klucel (hydroxypropylcellulose) (HPC) 90 % of control | dose: 0.19 mg/kg/injection, schedule: Q01DX009 (ip), vehicle: Klucel (hydroxypropylcellulose) (HPC) 94 % of control | dose: 0.39 mg/kg/injection, schedule: Q01DX009 (ip), vehicle: Klucel (hydroxypropylcellulose) (HPC) 94 % of control and 100 % of control | dose: 0.78 mg/kg/injection, schedule: Q01DX009 (ip), vehicle: Klucel (hydroxypropylcellulose) (HPC) 86 % of control and 90 % of control | dose: 1.56 mg/kg/injection, schedule: Q01DX009 (ip), vehicle: Klucel (hydroxypropylcellulose) (HPC) 87 % of control and 93 % of control

CCN(C(=O)Nc1ccccc1Cl)c1ccccc1
inactive: [10] 94 % of control | [11] 100 % of control | dose: 400.0 mg/kg/injection, schedule: Q04DX003 (ip), vehicle: saline with Tween-80 91 % of control

C/C(=C\c1ccc(C)cc1)[N+](=O)[O-]
inactive: [1] 89 % of control | [2] 96 % of control

O=C(Cc1ccccc1)NC/C=N/O
inactive: [2] 107 % of control | [3] 102 % of control | [4] 93 % of control | [12] 100 % of control

COc1ccc(CCN2CSC(=S)N(CCc3ccc(OC)c(OC)c3)C2)cc1OC
inactive: [5] 106 % of control | [6] 95 % of control | [7] 95 % of control

CCCCCCCCCCCCc1ccc(CS)cc1
inactive: dose: 100.0 mg/kg/injection, schedule: Q01DX009 (ip), vehicle: saline 92 % of control | dose: 200.0 mg/kg/injection, schedule: Q01DX009 (ip), vehicle: saline 89 % of control

C=C1C(=O)OC2/C=C(\C)CC/C=C(/C=O)C(OC(=O)C(C)C)C(O)C12 (stereo not drawn)
inactive: dose: 1.0 mg/kg/injection, schedule: Q01DX009 (ip), vehicle: saline with Tween-80 97 % of control | dose: 2.0 mg/kg/injection, schedule: Q01DX009 (ip), vehicle: saline with Tween-80 89 % of control and 97 % of control | dose: 4.0 mg/kg/injection, schedule: Q01DX009 (ip), vehicle: saline with Tween-80 100 % of control and 103 % of control | dose: 8.0 mg/kg/injection, schedule: Q01DX009 (ip), vehicle: saline with Tween-80 100 % of control

Cc1ccc([N+](=O)[O-])c(O)c1[N+](=O)[O-]
inactive: [13] 100 % of control | [6] 90 % of control

CCO/C=C1\SC(=S)N(c2ccccc2OC)C1=O
inactive: [14] 109 % of control | [15] 99 % of control and 117 % of control | [13] 107 % of control and 111 % of control | [5] 86 % of control and 107 % of control | [6] 111 % of control

COc1cc2nc3cc([N+](=O)[O-])ccc3c(Cl)c2cc1OC
inactive: [13] 103 % of control | [5] 96 % of control

O=C1c2ccccc2C(=O)c2c(NCCNCCNCCO)ccc(NCCNCCNCCO)c21
inactive: dose: 8.0 mg/kg/injection, schedule: Q01DX009 (ip), vehicle: acid diluted with saline 97 % of control | dose: 16.0 mg/kg/injection, schedule: Q01DX009 (ip), vehicle: acid diluted with saline 101 % of control | dose: 32.0 mg/kg/injection, schedule: Q01DX009 (ip), vehicle: acid diluted with saline 103 % of control | dose: 64.0 mg/kg/injection, schedule: Q01DX009 (ip), vehicle: acid diluted with saline 100 % of control | dose: 128.0 mg/kg/injection, schedule: Q01DX009 (ip), vehicle: acid diluted with saline 98 % of control

CCCCCCCCCC(=O)CCCCCC
inactive: [5] 90 % of control | [6] 89 % of control

COc1cc2c(cc1OC)C(c1ccc(O)c(O)c1)CNC2 (stereo not drawn)
inactive: [9] 99 % of control | [10] 89 % of control | [11] 90 % of control

O=c1c(O)c(-c2ccccc2)oc2ccccc12
inactive: [3] 94 % of control | [4] 96 % of control | [12] 91 % of control | dose: 800.0 mg/kg/injection, schedule: Q01DX009 (ip), vehicle: saline with Tween-80 93 % of control

CCN(CC)c1nc(N(CC)CC)nc(N(CC)CC)n1
inactive: [1] 89 % of control | [2] 94 % of control

CCOc1cc(C2=NNc3n[nH]c(=S)n3N2)ccc1O
inactive: [15] 96 % of control | dose: 25.0 mg/kg/injection, schedule: Q04DX003 (ip), vehicle: Klucel (hydroxypropylcellulose) (HPC) 97 % of control | [13] 100 % of control | dose: 50.0 mg/kg/injection, schedule: Q04DX003 (ip), vehicle: Klucel (hydroxypropylcellulose) (HPC) 102 % of control | dose: 100.0 mg/kg/injection, schedule: Q04DX003 (ip), vehicle: Klucel (hydroxypropylcellulose) (HPC) 122 % of control

O=C(Nc1cccc(C(F)(F)F)c1)c1cc(Br)cc(Br)c1O
inactive: [14] 108 % of control | [15] 106 % of control | [13] 110 % of control

Cc1cc2ncn(CC(=O)O)c2cc1C
inactive: [1] 95 % of control | [2] 97 % of control | [3] 97 % of control

CCCC(=O)Oc1ccc(/C=N/NC(N)=S)nc1
inactive: [8] 105 % of control | [1] 105 % of control | [2] 106 % of control and 112 % of control | [3] 116 % of control | [4] 110 % of control

Nn1c(=O)[nH][nH]c1=O
inactive: [13] 92 % of control | [5] 110 % of control | [3] 115 % of control | [6] 89 % of control | [4] 105 % of control | [12] 105 % of control

Nc1ncnc2c1ncn2C1OCC(O)C1O (stereo not drawn)
inactive: dose: 12.5 mg/kg/injection, schedule: Q01DX009 (ip), vehicle: saline 101 % of control | dose: 25.0 mg/kg/injection, schedule: Q01DX009 (ip), vehicle: saline 108 % of control | dose: 50.0 mg/kg/injection, schedule: Q01DX009 (ip), vehicle: saline 116 % of control

Cc1ccc(NC(=O)Nc2ccccc2C)c(C)c1
inactive: [13] 115 % of control | [5] 115 % of control | [6] 118 % of control

CC1(c2ccc(O)cc2)CCC(C(C)(C)c2ccc(O)cc2)CC1 (stereo not drawn)
inactive: [13] 87 % of control | [5] 96 % of control | [6] 91 % of control

CCOC(=O)C(C)Nc1ccccc1 (stereo not drawn)
inactive: [5] 102 % of control | [6] 91 % of control | dose: 300.0 mg/kg/injection, schedule: Q01DX009 (ip), vehicle: Klucel (hydroxypropylcellulose) (HPC) 121 % of control
